Assay results as given in patent US7666898B2, “Multivalent indole compounds and use thereof as phospholipase-A2 inhibitors” (Ilypsa, Inc., priority 2005, dated 2010).

Columns and labels:
[1] = target: human pancreatic secreted PLA2 (hps PLA2) (Homo sapiens, UniProt P04054); conditions: reported literature data; cited from earlier work
[2] = target: T1, human non-pancreatic PLA2 (hnp PLA2) (Homo sapiens, UniProt P14555); conditions: reported literature data; cited from earlier work
T1 sequence (P14555 21-144): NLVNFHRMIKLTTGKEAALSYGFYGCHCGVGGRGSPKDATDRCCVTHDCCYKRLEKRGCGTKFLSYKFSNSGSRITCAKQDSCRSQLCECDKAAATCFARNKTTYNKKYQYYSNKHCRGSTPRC

[3] = target: porcine pancreatic secreted PLA2 (pps PLA2) (Sus scrofa, UniProt P00592); conditions: reported literature data; cited from earlier work
Chain of porcine pancreatic secreted PLA2 (pps PLA2) (P00592 23-146): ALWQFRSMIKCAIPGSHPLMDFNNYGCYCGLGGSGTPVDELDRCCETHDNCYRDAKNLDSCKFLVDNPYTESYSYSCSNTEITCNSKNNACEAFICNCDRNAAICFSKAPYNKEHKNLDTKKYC

[4] = tested on: LDL receptor knockout mice (B6.129S7-Ldlrtm1Her); experiment: LDL receptor knockout mouse model (Example 15); format: in vivo; conditions: low fat control diet D12328, 25 or 90 mg/kg/d, vs low fat diet alone
Excerpt: Mice lack an enzyme found in humans, cholesterol ester transfer protein (CETP), which is responsible for the transfer of cholesterol from high density lipoproteins (HDL) to the ApoB-containing lipoproteins such as very low density lipoproteins (VLDL) and low density lipoproteins (LDL). Consequently, LDL cholesterol levels in wild-type mice are very low compared to those seen in humans. The low density lipoprotein receptor (LDLR) is involved with clearing LDL and lipoprotein remnants containing apoE. If the LDLR is inactivated, LDL cholesterol levels rise to levels seen in humans. On a normal rodent diet, the LDL cholesterol levels in LDLR deficient mice are elevated compared to wild-type mice. If the LDLR deficient mice are fed a Western-type diet containing elevated levels of fats and cholesterol, then the total cholesterol and LDL cholesterol levels become highly elevated and can exceed 1000 mg/dL and 300 mg/dL, respectively. This model was used to investigate the effects of indole and indole-related Test Articles. Avandia (rosiglitazone) and Zetia (ezetimibe) were used as control test articles.
Male LDL receptor knockout mice (B6.129S7-Ldlrtm1Her) were obtained from Jackson Labs (Bar Harbor, Me.). […] Diet and water was provided ad libitum throughout the course of the study. Animals were acclimated for at least seven days, and then randomized by body weight into fourteen groups of seven animals each. Each group of animals was placed on diets with and without Test Articles as described in Table 13. All diets other than Laboratory Rodent Diet 5001 were provided by Research Diets (New Brunswick, N.J.).
In these studies and the accompanying figures, Diet D12328 from Research Diets is referred to as the “Low Fat” or Control diet, while Diet D12079B from Research Diets is referred to as the “Western” diet. Groups 1-7 were fed diet D12328 that contained either no drug (Group 1) or varying amounts of Test Articles (Groups 2-7). Groups 8-14 were fed diet D12079 that contained either no drug (Group 8) or varying amounts of Test Articles (Groups 9-14). The Test Article content was calculated such that ad libitum consumption by the animals would deliver doses (in mg of Test Article per Kg animal weight per day) approximating those listed in Table 13.
Animals were maintained on the diets for eight weeks. Body weights were recorded weekly. Blood was drawn within 1-2 hrs of lights-on, without fasting. The serum was analyzed for total cholesterol, LDL cholesterol, HDL cholesterol, triglycerides (TG), free fatty acid (FFA) and lysophospholipid (LPC) content.
Statistical analyses were performed using GraphPad Prism 4.03. (GraphPad Software, Inc., San Diego, Calif.). Two sets of statistical analyses were performed. […]

[5] = Toxicology, 5-day daily oral gavage; format: in vivo, mice; conditions: 5 consecutive days
Excerpt: The purpose of this study was to evaluate the toxicity of indole and indole-related Test Articles when administered daily via oral gavage to mice for 5 consecutive days.
Assessment of toxicity was based on mortality; clinical signs, body weight, food consumption, clinical pathology, and macroscopic pathology data.

[6] = tested on: C57BL/6J mouse model of obesity; experiment: Mouse diet-induced obesity model (Example 14); format: in vivo; conditions: low fat control diet D12328, 25 or 90 mg/kg/d, vs low fat diet alone
Excerpt: The high-fat diet-fed C57BL/6J mouse model of human diabetes, originally introduced by Surwit and colleagues (Surwit, R S, et al. (1988) “Diet-induced type II diabetes in C57BL/6J mice”, Diabetes 37: 1163-1167) is a widely accepted, clinically relevant, polygenic model that induces obesity, dyslipidemia, glucose- and insulin-resistance as early as 3 weeks after commencing the high fat diet (Winzell, M S and Ahren, B (2004) “The high-fat diet-fed mouse: a model for studying mechanisms and treatment of impaired glucose tolerance and type 2 diabetes”, Diabetes 53 Suppl 3: S215-219). This model was used to investigate the effects of indole and indole-related Test Articles. Avandia (rosiglitazone) was used as a control Test Article.
Female C57Black/6J mice (5-6 weeks old) were obtained from Jackson laboratories (Bar Harbor, Me.). […] Diet and water was provided ad libitum throughout the course of the study. Animals were acclimated for at least seven days, and then randomized by weight into twelve groups of eight animals each. Each group of animals was placed on diets with and without Test Articles as described in Table 12. All diets other than Laboratory Rodent Diet 5001 were provided by Research Diets (New Brunswick, N.J.).
In these studies and the accompanying figures, Diet D12328 from Research Diets is referred to as the “Low Fat” or Control diet/chow, while Diet D12331 from Research Diets is referred to as the “High Fat” diet. Groups 1-6 were fed diet D12328 that contained either no drug (Group 1) or varying amounts of Test Articles (Groups 2-6). Groups 7-12 were fed diet D12331 that contained either no drug (Group 7) or varying amounts of Test Articles (Groups 8-12). The Test Article content was calculated such that ad libitum consumption by the animals would deliver doses (in mg of Test Article per kg animal weight per day) approximating those listed in Table 12.
Animals were maintained on the diets for up to eleven weeks. Body weights were recorded weekly. Blood was drawn within 1-2 hrs of lights-on. without fasting. The serum was analyzed for glucose, total cholesterol, triglycerides (TG) and lysophospholipid (LPC) content.
Statistical analyses were performed using GraphPad Prism 4.03. (GraphPad Software, Inc., San Diego, Calif.). Two sets of statistical analyses were performed. First, the Low Fat Chow, no treatment group was compared by student's two-tailed T-test against the High Fat, High Sucrose diet, no treatment group. […] Second, all treatment groups on the High Fat, High Sucrose diet were compared to the no-treatment group on that diet by 1-way ANOVA, followed by a Dunnett's post-test.

[7] = Mouse pharmacokinetic study (Example 13); conditions: for bioavailability: male, CD-1, mouse, in vivo, po, 30 mg/kg
Method: The plasma exposure of male CD-1 mice to indole and indole-related test articles (TAs) following intravenous (IV, 3 mg/kg) and oral (PO, 30 mg/kg) routes of administration was measured. This model was used to investigate the bioavailability of indole and indole-related TAs in mouse.
Two groups (N=18 and 27) of male CD-1 mice were used for the study.
The components were mixed by vortexing and sonicating in a warming bath for 60 minutes. Animals were fasted overnight prior to start of the study. On study day (1), formulations were sonicated for an hour to make sure that no visible particles were present prior to dosing, or if present were evenly distributed in suspension. Formulated test article were stirred continuously during dosing.
All animals were weighed on study day (1) and the body weights were recorded and used for dose calculation. […] Blood samples (0.5 mL) were collected at specified time intervals into labeled, yellow-capped Microtainer tubes. The tubes were centrifuged (8,000×g, 10 min). Serum was then pipetted off into labeled Eppendorf® tubes and frozen at −80° C. Clinical observations were recorded as needed.
Analysis of serum samples was performed by LC/MS/MS (Waters Quattro Premier, Milford, Mass.). Areas under curves (AUC) were calculated using Graphpad Prism Version 4. Bioavailability was calculated using the following equation: (Bioavailability)=(AUC0-t, oral/AUC0-t, iv)×(Doseiv/Doseoral)×100 where AUC0-t=total area under curve at the last measurable time point

[8] = target: T2, human group 1B PLA2 (hps PLA2) (Homo sapiens, UniProt P04054); experiment: Fluorimetric PLA2 inhibition assay, human (Example 8); format: biochemical; conditions: read-out: ILYPSA % inhibition at 15 μM hps PLA2
T2 construct: made in house; host or cells: E. coli
T2 sequence (P04054 23-148): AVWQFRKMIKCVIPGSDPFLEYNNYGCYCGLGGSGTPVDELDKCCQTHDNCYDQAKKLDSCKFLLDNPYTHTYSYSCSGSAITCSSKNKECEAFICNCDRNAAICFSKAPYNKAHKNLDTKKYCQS
Excerpt: (§1) In this example, a fluorimetric assay procedure was used to evaluate the indole and indole-related compounds of the invention as inhibitors of group 1B phospholipase A2 (PLA2) from human, mouse and porcine.
(§2) In general, this assay used a phosphatidylmethanol substrate with a pyrene fluorophore on the terminal end of the sn-2 fatty acyl chain. Without being bound by theory, close proximity of the pyrenes from neighboring phospholipids in a phospholipid vesicle caused the spectral properties to change relative to that of monomeric pyrene. Bovine serum albumin was present in the aqueous phase and captured the pyrene fatty acid when it is liberated from the glycerol backbone owing to the PLA2-catalyzed reaction. […] The effect of a given inhibitor and inhibitor concentration on human, mouse and porcine phospholipase was determined.
(§3) Recombinant human and mouse group 1B PLA2 were cloned and expressed in E. coli as insoluble inclusion bodies. The inclusion bodies were isolated and purified by sonicating cell pellet in lysis buffer (50 mM Tris-HCl pH 7.0, 250 mM NaCl, 0.5% Triton 100), centrifugation at 12,000×g, and washing three times in washing buffer (20 mM Tris-HCl pH 7.0, 250 mM NaCl, 0.5% Triton 100). Then the inclusion bodies were dissolved in dissolving buffer (50 mM Tris-HCl pH 7.0, 250 mM NaCl, 6 M Guanidine-HCl, 1 mM DTT) and dialyzed four times against 10 volumes of refolding buffer (20 mM Tris-HCl pH 7.0, 250 mM NaCl, 0.5M Guanidine-HCl, 5% (w/w) Glycerol, 2 mM reduced glutathione and 0.4 mM oxidized glutathione) at 4° C. The correctly refolded proteins were concentrated using Amicon Stirred cell under nitrogen pressure (<70 psi) and dialyzed against 10 volumes of 50 mM Tris-HCl pH 7.0, 250 mM NaCl and 5% (w/w) glycerol. Human and mouse group 1B PLA2 were further purified by High S ion exchange and gel filtration columns.
(§4) The following reagents were prepared: • 1. PPyrPM stock solution (1 mg/ml) in toluene:isopropanol (1:1) • 2. […]
(§5) The following procedure was performed to evaluate the inhibitory potency of the evaluated compounds. • 1. […]

[9] = target: T3, mouse group 1B PLA2 (mps PLA2) (Mus musculus, UniProt Q9Z0Y2); experiment: Fluorimetric PLA2 inhibition assay, mouse (Example 8); format: biochemical; conditions: read-out: ILYPSA % inhibition at 15 μM mps PLA2
T3 construct: made in house; host or cells: E. coli
T3 sequence (Q9Z0Y2 23-146): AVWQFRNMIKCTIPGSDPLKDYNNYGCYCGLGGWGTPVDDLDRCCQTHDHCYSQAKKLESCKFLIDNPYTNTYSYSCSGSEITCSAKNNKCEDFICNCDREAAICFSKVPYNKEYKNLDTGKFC
Excerpt: as §1, §2, §3, §4, §5

Chain of human pancreatic secreted PLA2 (hps PLA2) (P04054 23-148): as the sequence (P04054 23-148) above

In the case of `CCc1c(C(=O)C(N)=O)c2c(OCC(=O)O)cccc2n1Cc1ccccc1-c1ccccc1`, the IC50 [1] is listed as 0.062 µM and the IC50 [2] is listed as 0.004 ± 0.001 µM.

In the case of `Cc1c(CC(N)=O)c2cc(OCc3ccc(C(=O)O)cc3)ccc2n1Cc1ccccc1`, the IC50 [1] is given as 22.5 µM, the IC50 [3] is given as 7.5 µM and the IC50 [2] is given as 0.147 ± 0.009 µM.

In the case of `CCc1c(CC(N)=O)c2cc(SCCCC(=O)O)ccc2n1Cc1ccccc1`, the IC50 [1] is listed as 16 µM.

In the case of `Cc1c(CC(N)=O)c2cc(CCCC(=O)O)ccc2n1Cc1ccccc1`, the IC50 [1] is given as 94 µM.

In the case of `Cc1c(CC(=O)NN)c2cc(OCCCC(=O)O)ccc2n1Cc1ccccc1`, the “IC50 (μM) hps PLA2” value [1] is given as “no activity” and the “IC50 (μM) pps PLA2” value [3] is given as “no activity”.

For `NC(=O)Cc1c(Br)n(Cc2ccccc2)c2ccc(OCCCC(=O)O)cc12`, the IC50 [1] is listed as 15.9 µM and the IC50 [3] is listed as 2.86 µM.

In the case of `CCc1c(CC(N)=O)c2cc(OCCCP(=O)(O)O)ccc2n1Cc1cccc(Cl)c1`, the IC50 [1] is listed as 46.2 µM.

For “2,2′,2″-(1,1′,1″-(12,12′,12″-(benzene-1,3,5-triyltris(oxy))tris(dodecane-12,1-diyl))tris(3-(2-amino-2-oxoacetyl)-2-methyl-1H-indole-4,1-diyl))tris(oxy)triacetic acid [ILY-v-32]”, the “effect in animals fed a low fat control diet containing test article” value (from here on “effect”) [4] was “No or little effect”, the “clinical pathology data, treated groups vs vehicle control group” value [5] was “no differences” and the “effect” value [6] was “No or little effect”.

In the case of `Cc1c(C(=O)C(N)=O)c2c(OCC(=O)O)cccc2n1CCCCCCCCCCCCOc1ccccc1OCCCCCCCCCCCCn1c(C)c(C(=O)C(N)=O)c2c(OCC(=O)O)cccc21` [ILY-v-27, [3-Aminooxalyl-1-(12-{2-[12-(3-aminooxalyl-4-carboxymethoxy-2-methyl-indol-1-yl)-dodecyloxy]-phenoxy}-dodecyl)-2-methyl-1H-indol-4-yloxy]-acetic acid], the bioavailability [7] is reported as 1.49%.

Work on `Cc1c(C(=O)C(N)=O)c2c(OCC(=O)O)cccc2n1CCCCCCCCCCCCN(CCCCCCCCCCCCn1c(C)c(C(=O)C(N)=O)c2c(OCC(=O)O)cccc21)Cc1ccccc1` [ILY-v-31, 2,2′-(1,1′-(12,12′-(benzylazanediyl)bis(dodecane-12,1-diyl))bis(3-(2-amino-2-oxoacetyl)-2-methyl-1H-indole-4,1-diyl))bis(oxy)diacetic acid] yielded a bioavailability [7] of 5.15%.

In the case of `NC(=O)Cc1c(Br)n(Cc2ccccc2)c2ccc(OCCCP(=O)(O)O)cc12`, the IC50 [1] is listed as 6.2 µM and the IC50 [3] is listed as 2.2 µM.

In the case of `Cc1c(C(=O)C(N)=O)c2c(CCC(=O)O)cccc2n1Cc1ccccc1`, the IC50 [1] is listed as greater than 100 µM.

With `Cc1c(C(=O)C(N)=O)c2c(OCC(=O)NS(=O)(=O)CCCC(=O)O)cccc2n1Cc1ccccc1` [ILY-IV-40, 4-[2-(3-Aminooxalyl-1-benzyl-2-methyl-1H-indol-4-yloxy)-acetylsulfamoyl]-butyric acid] the “effect” value [4] was “No or little effect”, the “clinical pathology data, treated groups vs vehicle control group” value [5] was “no differences” and the “effect” value [6] was “No or little effect”. For the same compound, the “Bioavailability (%)” value ([7]; PO 30 mg/kg vs IV 3 mg/kg, CD-1 mice, serum LC/MS/MS) was 0.50%.

Compound `Cc1c(C(=O)C(N)=O)c2c(OC(Br)(C(N)=O)C(F)(F)F)cccc2n1Cc1ccccc1` (centres unmarked) [ILY-IV-53, 2-(3-Aminooxalyl-1-benzyl-2-methyl-1H-indol-4-yloxy)-2-bromo-3,3,3-trifluoro-propionamide] has an inhibition at 15 µM [8] of 49% and an inhibition at 15 µM [9] of 49.7%.

With `Cc1c(C(=O)C(N)=O)c2c(OCC(=O)O)cccc2n1CCCCCCCCCCCCOc1ccccc1-c1ccccc1OCCCCCCCCCCCCn1c(C)c(C(=O)C(N)=O)c2c(OCC(=O)O)cccc21` [ILY-v-37, [3-Aminooxalyl-1-(12-{2′-[12-(3-aminooxalyl-4-carboxymethoxy-2-methyl-indol-1-yl)-dodecyloxy]-biphenyl-2-yloxy}-dodecyl)-2-methyl-1H-indol-4-yloxy]-acetic acid] the “clinical pathology data, treated groups vs vehicle control group” value [5] was “no differences”.

In the case of `Cc1c(CC(N)=O)c2c(OCCCC(=O)O)cccc2n1Cc1ccccc1`, the IC50 [1] is given as 3.66 µM.

In the case of `Cc1c(C(=O)C(N)=O)c2c(/C=C/C(=O)O)cccc2n1Cc1ccccc1`, the IC50 [1] is given as greater than 100 µM.

For `Cc1c(C(=O)C(N)=O)c2c(OCC(=O)O)cccc2n1CCCCCCCCCCCCOc1ccc(C(C)(C)c2ccc(OCCCCCCCCCCCCn3c(C)c(C(=O)C(N)=O)c4c(OCC(=O)O)cccc43)cc2)cc1` [ILY-v-30, 2,2′-(1,1′-(12,12′-(4,4′-(propane-2,2-diyl)bis(4,1-phenylene))bis(oxy)bis(dodecane-12,1-diyl))bis(3-(2-amino-2-oxoacetyl)-2-methyl-1H-indole-4,1-diyl))bis(oxy)diacetic acid], the “effect” value [4] was “No or little effect”, the “clinical pathology data, treated groups vs vehicle control group” value [5] was “no differences” and the “effect” value [6] was “No or little effect”.

For `Cc1c(C(=O)C(N)=O)c2c(OCC(=O)O)cccc2n1CCCCCCCCCCCCSCCCCCCCCSCCCCCCCCCCCCn1c(C)c(C(=O)C(N)=O)c2c(OCC(=O)O)cccc21` [ILY-v-26, 2,2′-(1,1′-(12,12′-(Octane-1,8-diylbis(sulfanediyl))bis(dodecane-12,1-diyl))bis(3-(2-amino-2-oxoacetyl)-2-methyl-1H-indole-4,1-diyl))bis(oxy)diacetic acid], the “effect” value [4] was “No or little effect”, the “clinical pathology data, treated groups vs vehicle control group” value [5] was “no differences” and the “effect” value [6] was “No or little effect”.
